Assay results published in patent US20220041647A1, “ESTRA-1,3,5(10)-TRIENE COMPOUNDS CONDENSED IN POSITION 16(17) WITH A PYRAZOLE RING AS INHIBITORS OF 17-HSD1” (FORENDO PHARMA LTD, priority 2018, published 2022).

Experiments:
[1] = target: T1, recombinant human 17β-HSD2 (Homo sapiens, UniProt P37059); assay: Inhibition of recombinant human 17β-HSD2 (estradiol to estrone conversion, HPLC/radioactivity); assay type: biochemical; conditions: compound 1 μM; 50 nM estradiol, 1 mM NADH, 30 min RT
T1 construct: made in house; host or cells: Sd9 (Sf9) insect cells, baculovirus (Bac to Bac Expression System)
T1 sequence (P37059 1-387): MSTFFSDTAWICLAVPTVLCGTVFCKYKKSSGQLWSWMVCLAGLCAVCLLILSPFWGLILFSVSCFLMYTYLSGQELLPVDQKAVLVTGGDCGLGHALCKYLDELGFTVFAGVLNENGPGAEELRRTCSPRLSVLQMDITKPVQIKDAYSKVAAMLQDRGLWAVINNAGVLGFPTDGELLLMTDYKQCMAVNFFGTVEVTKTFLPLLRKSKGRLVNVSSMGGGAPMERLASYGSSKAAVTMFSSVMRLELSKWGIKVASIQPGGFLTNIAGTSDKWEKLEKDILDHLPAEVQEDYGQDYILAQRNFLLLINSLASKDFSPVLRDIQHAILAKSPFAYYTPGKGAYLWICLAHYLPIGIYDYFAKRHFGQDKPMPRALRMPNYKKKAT
Procedure, shortened: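 Membrane extract of Sf9 cells expressing recombinant human 17β-HSD2 (4 μg/ml), in 20 mM KH2PO4 pH 8.5 with 50 nM ^3H-spiked estradiol and 1 mM NADH, 30 min at RT, 1% DMSO. Compound at 1 μM or 0.1 μM; estrone formation by HPLC radioactivity, % inhibition relative to uninhibited conversion.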

[2] = target: T2, recombinant human 17β-HSD1 (Homo sapiens, UniProt P14061); assay: Inhibition of recombinant human 17β-HSD1 (estrone to estradiol conversion, HPLC/radioactivity); assay type: biochemical; conditions: compound 100 nM; 30 nM estrone, 1 mM NADPH, 30 min RT
T2 construct: made in house; host or cells: Sd9 (Sf9) insect cells, baculovirus (Bac to Bac Expression System)
T2 sequence (P14061 1-328): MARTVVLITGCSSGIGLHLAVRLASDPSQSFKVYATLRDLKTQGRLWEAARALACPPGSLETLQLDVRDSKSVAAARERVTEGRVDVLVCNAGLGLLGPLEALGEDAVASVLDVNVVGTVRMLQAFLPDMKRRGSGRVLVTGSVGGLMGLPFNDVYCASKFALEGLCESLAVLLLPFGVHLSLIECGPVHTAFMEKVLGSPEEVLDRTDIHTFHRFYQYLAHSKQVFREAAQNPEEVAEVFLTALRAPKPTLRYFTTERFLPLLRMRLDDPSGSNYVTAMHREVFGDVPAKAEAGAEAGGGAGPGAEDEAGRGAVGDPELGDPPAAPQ
Procedure, shortened: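 Microsomal human 17β-HSD1 from Sf9 baculovirus (1 μg/ml) was incubated 30 min at RT in 20 mM KH2PO4 pH 7.4 with 30 nM ^3H-estrone, 1 mM NADPH and inhibitor at 1 μM or 0.1 μM (1% DMSO). Estrone and estradiol were separated by HPLC with radioactivity detection. % inhibition = 100 − % conversion relative to uninhibited control.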

[3] = Metabolic stability assay, human hepatocyte incubations; assay type: in vitro ADME; conditions: compound 1 μM, human hepatocytes, 0-60 min at 37° C.; read-out: Human hepatocytes MetStab T½ min
Description: Compound stock solutions of the invention were prepared in […]. Final concentration of DMSO was adjusted to 1% in all samples. The in vitro metabolic stability of the compounds of the invention was determined for exemplified compounds using human hepatocyte incubations; study compounds at concentration of 1 μM were incubated 0, 10, 20, 40 and 60 min at 37° C. Samples were collected at all time points and compounds were detected by LC-MS/MS analysis. The percent compound remaining is calculated by comparing the peak area of the parent compound at each time point to time zero. In vitro metabolic stability was determined as half life (T1/2), which was determined by regression analysis of the percent parent disappearance vs. time curve.

[4] = test system: HSD1 enzyme that is expressed in rabbit placenta tissue; assay: Inhibition of E1 to E2 conversion in rabbit placenta tissue homogenate; assay type: biochemical; conditions: compound 100 nM, 30 nM estrone, 1 mM β-NADPH, 30 min
Procedure, shortened: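 Rabbit placenta homogenate (20 mM KH2PO4, 1 mM EDTA, pH 7.4) incubated 30 min with 1 mM β-NADPH, 30 nM estrone plus 5 nM [3H]-estrone tracer, and inhibitor at 1 μM or 0.1 μM (1% DMSO). Stopped with TCA; estrone and estradiol resolved by HPLC with scintillation counting; % inhibition = 100 − % conversion relative to uninhibited control.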

Structure (SMILES)	inhibition at 1 µM [1]	inhibition at 0.1 µM [2]	half-life at 1 μM [3]	Rabbit placenta inhibition % @100 nM [4]
C[C@]12CCC3c4cccc(F)c4CCC3C1[C@H](CCC(=O)NC1CCOCC1)c1c[nH]nc12 (stereo partly drawn) [Compound 45, 3-((8aS,12S)-3-fluoro-8a-methyl-1,2,6b,7,8,8a,10,12,12a,12b-decahydronaphtho[2′,1′:4,5]indeno[1,2-c]pyrazol-12-yl)-N-(tetrahydro-2H-pyran-4-yl)propanamide]	3%	90%	35 min	–
C[C@]12CCC3c4ccccc4CCC3C1[C@H](CCC(=O)N1CCCC1)c1c[nH]nc12 (stereo partly drawn) [Compound 147, 3-((8aS,12S)-8a-methyl-1,2,6b,7,8,8a,10,12,12a,12b-decahydronaphtho[2′,1′:4,5]indeno[1,2-c]pyrazol-12-yl)-1-(pyrrolidin-1-yl)propan-1-one]	11%	86%	9 min	–
Cc1ccc(NC(=O)CC[C@@H]2c3c[nH]nc3[C@@]3(C)CCC4c5ccccc5CCC4C23)nn1 (stereo partly drawn) [Compound 195, 3-((8aS,12S)-8a-methyl-1,2,6b,7,8,8a,10,12,12a,12b-decahydronaphtho[2′,1′:4,5]indeno[1,2-c]pyrazol-12-yl)-N-(6-methylpyridazin-3-yl)propanamide]	10%	70%	–	61%
CN1CCN(c2ccc(NC(=O)CC[C@@H]3c4c[nH]nc4[C@@]4(C)CCC5c6ccccc6CCC5C34)nc2)CC1 (stereo partly drawn) [Compound 198, 3-((8aS,12S)-8a-methyl-1,2,6b,7,8,8a,10,12,12a,12b-decahydronaphtho[2′,1′:4,5]indeno[1,2-c]pyrazol-12-yl)-N-(5-(4-methylpiperazin-1-yl)pyridin-2-yl)propanamide]	18%	88%	–	77%
CC(C)(C)NC(=O)CC[C@@H]1c2c[nH]nc2[C@@]2(C)CCC3c4ccccc4CCC3C12 (stereo partly drawn) [Compound 201, N-(tert-butyl)-3-((8aS,12S)-8a-methyl-1,2,6b,7,8,8a,10,12,12a,12b-decahydronaphtho[2′,1′:4,5]indeno[1,2-c]pyrazol-12-yl)propanamide]	4%	87%	13 min	–
C[C@]12CCC3c4cccc(F)c4CCC3C1[C@H](CCC(=O)Nc1cccc(F)n1)c1c[nH]nc12 (stereo partly drawn) [Compound 204, 3-((8aS,12S)-3-fluoro-8a-methyl-1,2,6b,7,8,8a,10,12,12a,12b-decahydronaphtho[2′,1′:4,5]indeno[1,2-c]pyrazol-12-yl)-N-(6-fluoropyridin-2-yl)propanamide]	1%	96%	–	63%
CC(C)(C)c1cc(NC(=O)CC[C@@H]2c3c[nH]nc3[C@@]3(C)CCC4c5cccc(F)c5CCC4C23)no1 (stereo partly drawn) [Compound 213, N-(5-(tert-butyl)isoxazol-3-yl)-3-((8aS,12S)-3-fluoro-8a-methyl-1,2,6b,7,8,8a,10,12,12a,12b-decahydronaphtho[2′,1′:4,5]indeno[1,2-c]pyrazol-12-yl)propanamide]	10%	93%	–	25%
C[C@]12CCC3c4cccc(F)c4CCC3C1[C@H](CCC(=O)NC1CCOC1)c1c[nH]nc12 (stereo partly drawn) [Compound 225, 3-((8aS,12S)-3-fluoro-8a-methyl-1,2,6b,7,8,8a,10,12,12a,12b-decahydronaphtho[2′,1′:4,5]indeno[1,2-c]pyrazol-12-yl)-N-(tetrahydrofuran-3-yl)propanamide]	-2%	88%	–	10%
Cc1ccc(NC(=O)CC[C@@H]2c3c[nH]nc3[C@@]3(C)CCC4c5cccc(F)c5CCC4C23)nn1 (stereo partly drawn) [Compound 228, 3-((8aS,12S)-3-fluoro-8a-methyl-1,2,6b,7,8,8a,10,12,12a,12b-decahydronaphtho[2′,1′:4,5]indeno[1,2-c]pyrazol-12-yl)-N-(6-methylpyridazin-3-yl)propanamide]	3%	87%	–	67%
C[C@]12CCC3c4cccc(F)c4CCC3C1[C@H](CCC(=O)N1CCOCC1)c1c[nH]nc12 (stereo partly drawn) [Compound 234, 3-((8aS,12S)-3-fluoro-8a-methyl-1,2,6b,7,8,8a,10,12,12a,12b-decahydronaphtho[2′,1′:4,5]indeno[1,2-c]pyrazol-12-yl)-1-morpholinopropan-1-one]	0%	85%	26 min	–
C[C@]12CCC3c4cccc(F)c4CCC3C1[C@H](CCC(=O)Nc1cccnn1)c1c[nH]nc12 (stereo partly drawn) [Compound 237, 3-((8aS,12S)-3-fluoro-8a-methyl-1,2,6b,7,8,8a,10,12,12a,12b-decahydronaphtho[2′,1′:4,5]indeno[1,2-c]pyrazol-12-yl)-N-(pyridazin-3-yl)propanamide]	1%	84%	–	58%
C[C@]12CCC3c4cccc(F)c4CCC3C1[C@H](CCC(=O)Nc1cc(N3CCOCC3)ccn1)c1c[nH]nc12 (stereo partly drawn) [Compound 240, 3-((8aS,12S)-3-fluoro-8a-methyl-1,2,6b,7,8,8a,10,12,12a,12b-decahydronaphtho[2′,1′:4,5]indeno[1,2-c]pyrazol-12-yl)-N-(4-morpholinopyridin-2-yl)propanamide]	2%	84%	–	35%
Cc1cc(NC(=O)CC[C@@H]2c3c[nH]nc3[C@@]3(C)CCC4c5ccccc5CCC4C23)no1 (stereo partly drawn) [Compound 246, 3-((8aS,12S)-8a-methyl-1,2,6b,7,8,8a,10,12,12a,12b-decahydronaphtho[2′,1′:4,5]indeno[1,2-c]pyrazol-12-yl)-N-(5-methylisoxazol-3-yl)propanamide]	15%	80%	–	19%
C[C@]12CCC3c4ccccc4CCC3C1[C@H](CCC(=O)Nc1ccc(N3CCOCC3)cn1)c1c[nH]nc12 (stereo partly drawn) [Compound 252, 3-((8aS,12S)-8a-methyl-1,2,6b,7,8,8a,10,12,12a,12b-decahydronaphtho[2′,1′:4,5]indeno[1,2-c]pyrazol-12-yl)-N-(5-morpholinopyridin-2-yl)propanamide]	7%	90%	–	46%
C[C@]12CCC3c4ccccc4CCC3C1[C@H](CCC(=O)Nc1cccnn1)c1c[nH]nc12 (stereo partly drawn) [Compound 255, 3-((8aS,12S)-8a-methyl-1,2,6b,7,8,8a,10,12,12a,12b-decahydronaphtho[2′,1′:4,5]indeno[1,2-c]pyrazol-12-yl)-N-(pyridazin-3-yl)propanamide]	0%	66%	–	46%
C[C@]12CCC3c4ccccc4CCC3C1[C@H](CCC(=O)Nc1cccc(F)n1)c1c[nH]nc12 (stereo partly drawn) [Compound 258, N-(6-fluoropyridin-2-yl)-3-((8aS,12S)-8a-methyl-1,2,6b,7,8,8a,10,12,12a,12b-decahydronaphtho[2′,1′:4,5]indeno[1,2-c]pyrazol-12-yl)propanamide]	2%	90%	–	43%
